Residues, ends and D or L forms follow the SMILES beside them. *: point of attachment. Cbz = O=C(OCc1ccccc1)*; OtBu = CC(C)(C)O*
Molecular target: T1, human Nav1.7 (Homo sapiens, UniProt Q15858)
T1 construct: expressed in transfected cells; host or cells: HEK293 stably expressing human Nav1.7
Experiment: Whole-cell patch-clamp, HEK293 cells stably expressing human Nav1.7 with GFP or FGF13-GFP
Type: cell-based
Details: for Time constant of repriming, Mean: Fig 1L, PW164; for Activation / Long-term inactivation, 2nd Pulse / Long-term inactivation, 3rd Pulse / Long-term inactivation, 4th Pulse / Peak Density / Steady state inactivation / Tau (τ): HEK293 Nav1.7
Procedure: Whole-cell patch clamp electrophysiology
HEK293-Nav1.7 cells, HEK293 stably expressing human Nav1.6 (HEK-Nav1.6), HEK293 stably expressing human Nav1.5 (HEK-Nav1.5), human hIPSC-derived sensory neurons (RealDRGTM from Anatomic Incorporated 1020F1-1M) and donor-derived DRG neurons were plated at low density on glass coverslips and processed for whole-cell patch clamp electrophysiology in voltage-clamp and/or current clamp mode. Whole-cell patch electrophysiological experiments were conducted following previously published studies (26). Current densities were obtained by dividing INa amplitude by membrane capacitance. Current –voltage relationships were generated by plotting current density as a function of the […]. Conductance (G Na) was calculated by the […]
where INa is the current amplitude at voltage Vm, and Erev is the Na+ reversal potential.
Activation curves were derived by plotting normalized GNa as a function of test potential and fitted using […]
Where GNa,Max is the maximum conductance, Va is the membrane potential of half-maximal activation, Em is the membrane voltage and k is the slope factor. For steady -state inactivation, normalized current amplitude (INa/INa,Max) at the test potential was plotted as a function of prepulse potential (Vm) and fitted using the […]
Where Vh is the potential of half-maximal inactivation, E m is the membrane voltage, and k is the slope factor.
Transient INa inactivation decay was estimated with the standard exponential equation. Inactivation time constant (tau, τ) was fitted with the following equation: […]
where I(t) is the amplitude of the current at time t and Iss is the steady-state current during a single voltage-step.
The goodness of fitting was determined by correlation coefficient (R), and the cutoff of R was set at 0.85. To observe effects on long-term inactivation (LTI), a four-step protocol was employed during which cells were subjected to four 0 mV, 20 ms depolarization pulses separated by −90 mV, 40 ms recovery intervals. To control for various cell sizes, the current densities were calculated by dividing INa peak current amplitude/membrane capacitance (Cm). To represent the fraction of channels entering into LTI, the peak INa observed during depolarization cycles 2-4 was normalized to the peak INa observed during depolarization cycle 1 (INa/INa,Cycle 1) and plotted as a function of the depolarization cycle.
The cumulative (frequency-dependent) use-dependency was determined by applying 20 pulses with a depolarization to −10 mV (50 ms duration) and 50 ms recovery intervals with a train of 20 pulses at 10 Hz from a holding potential at -70 mV. The current pulses were normalized to the first reco rded pulse and the currents at the 2nd to 20th pulses were compared. The same train was used to record use-dependency at various frequencies […]
The rate of recovery from inactivation was recorded at -80 mV with a standard repriming voltage protocol.
The cells were prepulsed to -20 mV for 20 ms to inactivate all currents, then driven back to the recovery potential (Vrec) for increasing recovery durations before the test pulse to 0 mV. The maximum pulse rate was 0.5 Hz. The […]
follows previous publications (16). The time constants were estimated from single exponential decay to time courses measured at recovery potentials ranging from -140 to -60 mV with the protocol as mentioned above.
Electrophysiological Recordings
HEK293 cells: Electrophysiological recordings in HEK293 stably expressing Nav1.7 (HEK-Nav1.7), Nav1.5 (HEK-Nav1.5) or Nav1.6 (HEK-Nav1.6) were performed at room temperature using a MultiClamp 700B or an Axopatch 200B amplifier (Molecular Devices) after incubating coverslips for 60 minutes either with 0.1% DMSO or 50 μM PW164 or ZL192 in the extracellular solution. The composition of recording solutions consisted of the […]
following salts: extracellular (mM): 140 NaCl, 3 KCl, 1 MgCl2, 1 CaCl2, 10 HEPES, 10 glucose, pH 7.3; […]
intracellular (mM): 130 CH3O3 SCs, 1 EGTA, 10 NaCl, 10 HEPES, pH 7.3. […]

T1 sequence (Q92913 1-192 partner limits assumed): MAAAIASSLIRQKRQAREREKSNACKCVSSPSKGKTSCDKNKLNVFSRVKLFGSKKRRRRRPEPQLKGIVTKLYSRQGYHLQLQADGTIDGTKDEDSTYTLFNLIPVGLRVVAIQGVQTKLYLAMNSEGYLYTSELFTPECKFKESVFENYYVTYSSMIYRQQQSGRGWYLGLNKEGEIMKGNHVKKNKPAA
T1 sequence (Q15858 1-1977 isoform Q15858-3): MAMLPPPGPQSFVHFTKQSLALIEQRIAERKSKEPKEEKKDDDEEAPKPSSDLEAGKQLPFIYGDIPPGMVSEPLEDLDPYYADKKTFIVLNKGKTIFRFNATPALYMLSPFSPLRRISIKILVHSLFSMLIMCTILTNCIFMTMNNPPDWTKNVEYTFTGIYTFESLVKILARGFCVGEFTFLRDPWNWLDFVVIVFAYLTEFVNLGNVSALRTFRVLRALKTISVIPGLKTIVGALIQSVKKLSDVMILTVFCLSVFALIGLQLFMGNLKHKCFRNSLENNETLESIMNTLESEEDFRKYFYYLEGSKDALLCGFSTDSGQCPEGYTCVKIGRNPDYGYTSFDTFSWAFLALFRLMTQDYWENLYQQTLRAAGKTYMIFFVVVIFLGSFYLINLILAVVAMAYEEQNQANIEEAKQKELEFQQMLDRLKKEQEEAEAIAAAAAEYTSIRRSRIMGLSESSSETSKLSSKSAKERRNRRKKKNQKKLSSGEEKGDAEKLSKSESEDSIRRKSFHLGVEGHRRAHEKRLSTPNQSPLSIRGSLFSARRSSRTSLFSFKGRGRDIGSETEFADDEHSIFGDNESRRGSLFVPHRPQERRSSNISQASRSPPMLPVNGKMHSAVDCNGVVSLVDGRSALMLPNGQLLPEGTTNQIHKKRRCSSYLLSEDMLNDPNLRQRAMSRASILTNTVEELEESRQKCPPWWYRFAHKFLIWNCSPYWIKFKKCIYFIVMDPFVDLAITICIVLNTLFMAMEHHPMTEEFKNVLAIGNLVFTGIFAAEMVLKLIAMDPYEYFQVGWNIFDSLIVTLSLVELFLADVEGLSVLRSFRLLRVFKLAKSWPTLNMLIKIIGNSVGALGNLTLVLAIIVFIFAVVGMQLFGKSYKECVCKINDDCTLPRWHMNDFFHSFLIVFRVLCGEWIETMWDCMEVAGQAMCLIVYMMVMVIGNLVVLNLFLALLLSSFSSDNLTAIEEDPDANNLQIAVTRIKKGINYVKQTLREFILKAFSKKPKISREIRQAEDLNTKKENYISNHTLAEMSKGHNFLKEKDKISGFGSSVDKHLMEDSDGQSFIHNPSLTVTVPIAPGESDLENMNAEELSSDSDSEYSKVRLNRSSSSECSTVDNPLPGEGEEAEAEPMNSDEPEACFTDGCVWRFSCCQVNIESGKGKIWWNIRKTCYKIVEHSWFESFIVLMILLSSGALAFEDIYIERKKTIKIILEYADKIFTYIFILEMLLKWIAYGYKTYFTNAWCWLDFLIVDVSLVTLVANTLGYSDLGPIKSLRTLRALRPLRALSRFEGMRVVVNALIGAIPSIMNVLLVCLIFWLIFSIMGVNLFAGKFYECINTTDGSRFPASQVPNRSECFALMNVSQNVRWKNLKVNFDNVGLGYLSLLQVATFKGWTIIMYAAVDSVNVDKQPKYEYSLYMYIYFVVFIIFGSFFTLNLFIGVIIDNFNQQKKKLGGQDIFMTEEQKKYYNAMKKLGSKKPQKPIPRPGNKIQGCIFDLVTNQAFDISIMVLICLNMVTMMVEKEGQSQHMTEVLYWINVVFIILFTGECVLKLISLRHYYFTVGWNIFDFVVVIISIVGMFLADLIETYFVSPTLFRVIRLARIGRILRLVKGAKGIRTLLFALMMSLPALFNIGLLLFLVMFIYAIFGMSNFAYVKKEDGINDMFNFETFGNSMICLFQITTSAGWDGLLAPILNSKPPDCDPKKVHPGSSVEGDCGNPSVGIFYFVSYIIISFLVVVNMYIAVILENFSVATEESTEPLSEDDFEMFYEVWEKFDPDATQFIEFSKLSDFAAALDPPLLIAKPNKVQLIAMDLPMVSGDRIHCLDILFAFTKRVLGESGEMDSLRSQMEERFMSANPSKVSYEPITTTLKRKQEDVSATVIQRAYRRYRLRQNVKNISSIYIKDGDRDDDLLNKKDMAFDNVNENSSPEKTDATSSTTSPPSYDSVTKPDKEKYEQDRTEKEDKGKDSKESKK

For `COC(=O)[C@@H](NC(=O)[C@H](CCC(=O)OC(C)(C)C)NC(=O)[C@H](CC(C)C)NC(=O)[C@@H]1CCCN1C(=O)OCc1ccccc1)C(C)C` [PW164] (Cbz-PLE(OtBu)V-OMe), the “Time constant of repriming, Mean” value (Nav1.7 + FGF13-GFP, recovery potential -100) was 42.57 ms, the “Time constant of repriming, Mean” value (Nav1.7 + FGF13-GFP, recovery potential -120) was 33.57 ms and the “Time constant of repriming, Mean” value (Nav1.7 + FGF13-GFP, recovery potential -140) was 16.96 ms. The “Time constant of repriming, Mean” value (Nav1.7 + GFP, recovery potential -60) was 57.89 ms, the “Time constant of repriming, Mean” value (Nav1.7 + GFP, recovery potential -70) was 65.42 ms and the “Time constant of repriming, Mean” value (Nav1.7 + GFP, recovery potential -80) was 71.67 ms. For the same molecule, the “Time constant of repriming, Mean” value (Nav1.7 + GFP, recovery potential -90) was 61.78 ms, the “Time constant of repriming, Mean” value (Nav1.7 + GFP, recovery potential -100) was 47.69 ms and the “Time constant of repriming, Mean” value (Nav1.7 + GFP, recovery potential -120) was 34.63 ms. The “Time constant of repriming, Mean” value (Nav1.7 + GFP, recovery potential -140) was 16.6 ms, the Activation (FGF13-GFP + PW164 50 μM) was −19.7 ± 0.9 mV and the “Long-term inactivation, 2nd Pulse” value (FGF13-GFP + PW164 50 μM) was −69.72 ± 5.21 % maximal Na+ current. The “Long-term inactivation, 3rd Pulse” value (FGF13-GFP + PW164 50 μM) was −60.33 ± 5.60 % maximal Na+ current, the “Long-term inactivation, 4th Pulse” value (FGF13-GFP + PW164 50 μM) was −59.34 ± 4.68 % maximal Na+ current and the Peak Density (FGF13-GFP + PW164 50 μM) was −26.7 ± 3.6 pA/pF. The Steady state inactivation (FGF13-GFP + PW164 50 μM) was −64.7 ± 2.1 mV, the “Tau (τ)” value (FGF13-GFP + PW164 50 μM) was 0.80 ± 0.03 ms and the Activation (FGF13A GFP (FGF13-1a) + PW164) was −26.91 ± 1.25 mV. The Peak Density (FGF13A GFP (FGF13-1a) + PW164) was −109.1 ± 11.7 pA/pF, the Steady state inactivation (FGF13A GFP (FGF13-1a) + PW164) was −63.11 ± 2.14 mV and the “Tau (τ)” value (FGF13A GFP (FGF13-1a) + PW164) was 1.41 ± 0.06 ms. For the same molecule, the “Long-term inactivation, 2nd Pulse” value (FGF13A-GFP (FGF13-1a) + PW164) was −47.28 ± 4.68 % maximal Na+ current, the “Long-term inactivation, 3rd Pulse” value (FGF13A-GFP (FGF13-1a) + PW164) was −35.27 ± 3.04 % maximal Na+ current and the “Long-term inactivation, 4th Pulse” value (FGF13A-GFP (FGF13-1a) + PW164) was −29.22 ± 4.16 % maximal Na+ current. For the same molecule, the Activation (GFP + PW164 50 μM) was −26.1 ± 0.4 mV, the “Long-term inactivation, 2nd Pulse” value (GFP + PW164 50 μM) was −67.94 ± 3.77 % maximal Na+ current and the “Long-term inactivation, 3rd Pulse” value (GFP + PW164 50 μM) was −62.35 ± 5.35 % maximal Na+ current. The “Long-term inactivation, 4th Pulse” value (GFP + PW164 50 μM) was −60.93 ± 3.90 % maximal Na+ current, the Peak Density (GFP + PW164 50 μM) was −69.2 ± 7.5 pA/pF and the Steady state inactivation (GFP + PW164 50 μM) was −83.5 ± 1.7 mV. For the same molecule, the “Tau (τ)” value (GFP + PW164 50 μM) was 1.48 ± 0.25 ms, the IC50 (HEK-Nav1.7 coexpressing FGF13-GFP, Fig 1F, read-out: IC50, reversal of FGF13-induced increase in INa density) was 6.74 ± 0.5 µM and the “Time constant (ms), Mean (Figure 4J)” value (Nav1.7 + FGF13-GFP, at -60, N 5) was 36.71 ms. The “Time constant (ms), Mean (Figure 4J)” value (Nav1.7 + FGF13-GFP, at -70, N 5) was 42.79 ms, the “Time constant (ms), Mean (Figure 4J)” value (Nav1.7 + FGF13-GFP, at -80, N 5) was 44.71 ms and the “Time constant (ms), Mean (Figure 4J)” value (Nav1.7 + FGF13-GFP, at -90, N 5) was 37.77 ms. For the same molecule, the “Time constant (ms), Mean (Figure 4J)” value (Nav1.7 + FGF13-GFP, at -100, N 5) was 28.49 ms, the “Time constant (ms), Mean (Figure 4J)” value (Nav1.7 + FGF13-GFP, at -120, N 5) was 23.55 ms and the “Time constant (ms), Mean (Figure 4J)” value (Nav1.7 + FGF13-GFP, at -140, N 5) was 14.96 ms. The “Time constant (ms), Mean (Figure 4J)” value (Nav1.7 + GFP, at -60, N 6) was 50.23 ms, the “Time constant (ms), Mean (Figure 4J)” value (Nav1.7 + GFP, at -70, N 6) was 52.23 ms and the “Time constant (ms), Mean (Figure 4J)” value (Nav1.7 + GFP, at -80, N 6) was 56.52 ms. The “Time constant (ms), Mean (Figure 4J)” value (Nav1.7 + GFP, at -90, N 6) was 45.93 ms, the “Time constant (ms), Mean (Figure 4J)” value (Nav1.7 + GFP, at -100, N 6) was 35.06 ms and the “Time constant (ms), Mean (Figure 4J)” value (Nav1.7 + GFP, at -120, N 6) was 27.11 ms. The “Time constant (ms), Mean (Figure 4J)” value (Nav1.7 + GFP, at -140, N 6) was 15.6 ms and the “activity on Nav1.7 currents” value (Nav1.7 cells coexpressing FGF13-1a-GFP (FGF13S)) was “inactive”.

Source: article PMC12259270, “Sensory neuron–expressed FGF13 controls nociceptive signaling in diabetic neuropathy models” (The Journal of Clinical Investigation, 2025)
